Test results as given in PubChem BioAssay AID1850 (Southern Research Specialized Biocontainment Screening …, 2009).

System: Salmonella Typhi PhoP-promoter GFP reporter, fluorescence, 4 h
Experiment: Inhibition of PhoP regulon, Salmonella typhi GFP reporter cells, confirmation, 4 h (AID 1850)

Row | Compound | IC50
1 | Cc1cc(C2N=C(N)Nc3nc4ccccc4n32)c(C)n1-c1ccccc1Cl (centres undefined) | 32 µM
2 | O=C(N/N=C/c1sc2ccccc2c1O)c1cccc2ccccc12 | 70.5 µM
3 | O=[N+]([O-])/C=C/c1cc2ccccc2[nH]1 | 95 µM
4 | COc1ccc(/C=N/Nc2cc(C)nc3c(C)cccc23)cc1 | 19.3 µM
5 | CCOc1ccc(/C=N/NC(=O)c2[nH]ncc2Br)c(O)c1 | 138 µM
6 | CCCc1nnc(NC(=O)c2cn(CC)c3cc(N4CCN(C)CC4)c(F)cc3c2=O)s1 | 66.8 µM
7 | Cc1cc(NC(=O)c2ccccc2)sc1C | 62.3 µM
8 | CCc1ccc(NC(=O)Nc2ccncc2)cc1 | 71.3 µM
9 | O=C(NC(=S)NNC(=O)c1cnccn1)c1ccc(F)cc1 | 36.1 µM
10 | CNC(=S)N1CCN(c2c(F)cc3c(=O)c(C(=O)O)cn(C4CC4)c3c2OC)CC1C (centres undefined) | 7.83 µM
11 | CCCCCC[N+](C)(C)CC/C=C1/c2ccccc2Sc2ccc(Cl)cc21 | 38.1 µM
12 | Cc1ccc2nc(/C(C#N)=C\c3ccc([N+](=O)[O-])o3)[nH]c2c1 | 99.1 µM
13 | NC1=NC2(CCCCC2)N=C(Nc2ccc(Br)cc2)N1 | 12.7 µM
14 | CCn1cc(C(=O)O)c(=O)c2cc(F)c(N3CCNCC3)cc21 | 0.27 µM
15 | COc1ccc2c(c1OC)C(=O)N(c1ccc(C)cc1)C2=O | 143 µM
16 | NC(N)=N/N=C/c1ccc(OCc2ccc(Cl)cc2Cl)cc1 | 18.4 µM
17 | CC(C)(C)CC(C)(C)c1ccc(OCCOCC[N+](C)(C)Cc2ccccc2)cc1 | 20.4 µM
18 | CCSc1ccc2c(c1)N(CCCN1CCN(C)CC1)c1ccccc1S2 | 45.5 µM
19 | CC(C)Oc1ccc(Cc2cnc(N)nc2N)cc1 | 67.5 µM
20 | COc1ccc(NC2=NC3(CCCCC3)N=C(N)N2)cc1 | 74 µM
21 | c1ccc(CN2CCC(Nc3nc(-c4cccs4)nc4ccccc34)CC2)cc1 | 21.5 µM
22 | Cc1ccc(C(OCC(O)CNCc2ccc(F)cc2)c2ccccc2)cc1 (centres undefined) | 48.4 µM
23 | O=C(Cc1ccc(Br)cc1)c1ccc(O)cc1O | 119 µM
24 | CN(Cc1ccccc1)CC(O)COc1ccc(CNCc2ccc(Cl)s2)cc1 (centres undefined) | 124 µM
25 | CC(NCc1ccc(-c2ccccc2)cc1)C(O)c1ccccc1 (centres undefined) | 63.6 µM

Row | Compound | IC50
26 | O=Nc1ccc(O)c2ncccc12 | 17.8 µM
27 | Oc1ccc(C[C@@H]2CNCCN2CCCCC2CCCCC2)cc1 | 46.8 µM
28 | N/C(=N\OS(=O)(=O)c1ccc2ccccc2c1)c1cccnc1 | 20.7 µM
29 | CCCCCc1ccc(OCCCC[n+]2ccccc2)c(CCCCC)c1 | 35.3 µM
30 | COc1ccc(/C=C/C(=O)NC(=S)NNC(=O)c2cnccn2)cc1 | 49.8 µM
31 | CS(=O)(=O)c1ccc([C@@H](O)[C@@H](CO)NC(=O)C(Cl)Cl)cc1 | 33.5 µM
32 | O=C(NC(CO)Cc1ccc([N+](=O)[O-])cc1)C(Cl)Cl (centres undefined) | 5.73 µM
33 | CC/C(=N\Nc1ccnc2cc(Cl)ccc12)c1ccc(O)cc1 | 50.9 µM
34 | COc1ccccc1CNCCc1ccc(F)cc1 | 24.8 µM
35 | CCOc1ccc(-c2cc(C)[n+](CCN(CC)CC)c(-c3ccc(OCC)cc3)c2)cc1 | 37.5 µM
36 | Oc1cccc2ccc(Nc3ccccn3)nc12 | 9.36 µM
37 | O=c1cc(-c2ccccc2)cc(-c2ccccc2)n1O | 19.2 µM
38 | Cc1ccc(-c2csc(N=C(N)N)n2)c(C)c1 | 50.1 µM
39 | OC1CCCN(Cc2ccc3ccc4cccc5ccc2c3c45)C1 (centres undefined) | 79.3 µM
40 | CN1CCN(c2nc(Nc3ccc(F)cc3)nc(Nc3ccc(F)cc3)n2)CC1 | 80.6 µM
41 | Clc1cccc(CN2CCc3c([nH]c4ccccc34)C2)c1Cl | 76.5 µM
42 | CC(NCc1ccc(Cl)c(Cl)c1)C(O)c1ccccc1 (centres undefined) | 61.6 µM
43 | Nc1nc2ccccc2n1CCOc1ccccc1Cl | 73.3 µM
44 | CCOc1ccc(Nc2nc(N)c3ccccc3n2)cc1 | 19.7 µM
45 | O=[N+]([O-])c1cccc2c(N3CCCC3)ccnc12 | 26.6 µM
46 | COc1ccc(Nc2cc(C)nc(NCc3ccccc3)n2)cc1 | 74.1 µM
47 | CN1CCN(C2=Cc3ccccc3Sc3cc(F)c(Cl)cc32)CC1 | 32.8 µM
48 | COc1cc(CNCCc2c[nH]c3ccccc23)ccc1OCc1ccccc1F | 133 µM
49 | O=C(O)c1cn(C2CC2)c2cc(N3CCN(S(=O)(=O)c4ccc5c(c4)OCCO5)CC3)c(F)cc2c1=O | 7.56 µM
